Reference: ChEMBL document CHEMBL1201862, “PubChem BioAssay data set” (2004)
Active and inactive are the calls of the source.

Tests used:
[1] = target: T1, Zinc finger protein mex-5 (Caenorhabditis elegans, UniProt Q9XUB2); experiment: potency of MEX-5 RNA-binding blockers – biochemical, C. elegans, fluorescence polarization, dose response (AID 1960)
T1 sequence (Q9XUB2 whole entry): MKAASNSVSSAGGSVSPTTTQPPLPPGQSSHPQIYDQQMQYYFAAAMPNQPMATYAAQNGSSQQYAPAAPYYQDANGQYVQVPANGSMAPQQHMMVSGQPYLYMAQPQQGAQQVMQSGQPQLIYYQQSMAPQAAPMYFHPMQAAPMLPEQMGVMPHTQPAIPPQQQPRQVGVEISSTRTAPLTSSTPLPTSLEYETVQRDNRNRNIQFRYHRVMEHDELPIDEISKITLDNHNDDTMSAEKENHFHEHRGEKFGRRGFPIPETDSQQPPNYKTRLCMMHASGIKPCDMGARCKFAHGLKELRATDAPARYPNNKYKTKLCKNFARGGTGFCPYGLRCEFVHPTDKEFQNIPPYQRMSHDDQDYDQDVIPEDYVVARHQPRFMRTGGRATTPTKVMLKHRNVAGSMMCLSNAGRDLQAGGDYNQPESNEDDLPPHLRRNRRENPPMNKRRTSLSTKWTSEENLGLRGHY

[2] = target: T2, RNA-binding protein pos-1 (Caenorhabditis elegans, UniProt G5EF15); experiment: disruptors of C. elegans POS-1 RNA interaction – biochemical, fluorescence polarization, dose response (AID 1964);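 also: purified POS-1 fused to maltose binding protein made in E. coli; potency of compounds blocking POS-1 binding to fluorescent RNA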
T2 sequence (G5EF15 whole entry): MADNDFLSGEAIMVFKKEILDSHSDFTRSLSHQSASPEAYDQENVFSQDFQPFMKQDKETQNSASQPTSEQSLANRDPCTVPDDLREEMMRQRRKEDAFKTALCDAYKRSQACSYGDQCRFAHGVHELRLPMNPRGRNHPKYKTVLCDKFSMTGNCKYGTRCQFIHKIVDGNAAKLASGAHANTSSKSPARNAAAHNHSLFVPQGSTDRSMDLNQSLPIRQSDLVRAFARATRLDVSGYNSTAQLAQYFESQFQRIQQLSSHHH

Cytochrome P450 2C9 = Cytochrome P450 2C9 (Homo sapiens, UniProt P11712)
Chain of Cytochrome P450 2C9 (P11712 whole entry, the tested form may be a part): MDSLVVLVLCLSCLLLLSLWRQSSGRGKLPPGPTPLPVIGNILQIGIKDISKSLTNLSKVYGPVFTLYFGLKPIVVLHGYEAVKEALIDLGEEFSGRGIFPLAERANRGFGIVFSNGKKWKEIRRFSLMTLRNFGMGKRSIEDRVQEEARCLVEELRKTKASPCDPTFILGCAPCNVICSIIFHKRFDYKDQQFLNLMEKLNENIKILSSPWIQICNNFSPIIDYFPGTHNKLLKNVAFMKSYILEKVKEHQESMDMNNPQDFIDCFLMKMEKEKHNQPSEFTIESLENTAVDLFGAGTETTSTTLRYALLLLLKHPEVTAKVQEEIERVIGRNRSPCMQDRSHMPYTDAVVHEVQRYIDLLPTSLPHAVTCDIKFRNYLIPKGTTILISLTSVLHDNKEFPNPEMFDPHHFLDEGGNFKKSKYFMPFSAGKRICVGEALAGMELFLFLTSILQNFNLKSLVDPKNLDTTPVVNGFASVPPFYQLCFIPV

[3] = target: T3, Polyadenylate-binding protein 1 (Homo sapiens, UniProt P11940); experiment: MLLE domain peptide-binding blockers, IC50 – biochemical, fluorescence polarization, FITC-PAM2 peptide, dose response (AID 602259); assay type: functional; settings: read-out: IC50_Mean
T3 sequence (P11940 whole entry, the tested form may be a part): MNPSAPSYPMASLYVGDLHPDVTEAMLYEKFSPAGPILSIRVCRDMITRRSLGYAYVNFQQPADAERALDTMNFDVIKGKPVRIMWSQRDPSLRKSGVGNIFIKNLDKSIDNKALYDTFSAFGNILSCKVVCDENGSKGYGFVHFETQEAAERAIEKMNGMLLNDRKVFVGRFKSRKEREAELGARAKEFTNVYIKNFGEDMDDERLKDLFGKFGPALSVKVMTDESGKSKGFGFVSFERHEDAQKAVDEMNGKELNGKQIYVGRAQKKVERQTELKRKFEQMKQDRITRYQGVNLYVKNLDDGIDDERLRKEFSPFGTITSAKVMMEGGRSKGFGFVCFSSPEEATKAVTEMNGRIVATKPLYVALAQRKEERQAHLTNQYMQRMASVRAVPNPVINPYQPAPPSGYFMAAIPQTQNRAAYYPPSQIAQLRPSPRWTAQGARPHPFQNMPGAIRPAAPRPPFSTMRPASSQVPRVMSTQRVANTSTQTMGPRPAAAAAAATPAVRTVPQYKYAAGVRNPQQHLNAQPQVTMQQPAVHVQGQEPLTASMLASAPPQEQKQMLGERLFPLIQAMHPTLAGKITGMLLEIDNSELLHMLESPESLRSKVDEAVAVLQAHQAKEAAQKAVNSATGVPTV

[4] = target: T3, Polyadenylate-binding protein 1; experiment: MLLE binding blockers, Cy5 peptide tracer – biochemical, fluorescence polarization, Cy5-PAM2 peptide, secondary, miRNA deadenylation inhibitor project, dose response (AID 602260); assay type: functional; settings: read-out: IC50_Mean
[5] = target: T4, Rac GTPase-activating protein 1 (Homo sapiens, UniProt Q9H0H5); experiment: blockers of MgcRacGAP-driven Rac1 GTP hydrolysis – biochemical, ADP Hunter fluorescence, primary and confirmatory, confirmation (AID 624330); assay type: functional
T4 sequence (Q9H0H5 whole entry): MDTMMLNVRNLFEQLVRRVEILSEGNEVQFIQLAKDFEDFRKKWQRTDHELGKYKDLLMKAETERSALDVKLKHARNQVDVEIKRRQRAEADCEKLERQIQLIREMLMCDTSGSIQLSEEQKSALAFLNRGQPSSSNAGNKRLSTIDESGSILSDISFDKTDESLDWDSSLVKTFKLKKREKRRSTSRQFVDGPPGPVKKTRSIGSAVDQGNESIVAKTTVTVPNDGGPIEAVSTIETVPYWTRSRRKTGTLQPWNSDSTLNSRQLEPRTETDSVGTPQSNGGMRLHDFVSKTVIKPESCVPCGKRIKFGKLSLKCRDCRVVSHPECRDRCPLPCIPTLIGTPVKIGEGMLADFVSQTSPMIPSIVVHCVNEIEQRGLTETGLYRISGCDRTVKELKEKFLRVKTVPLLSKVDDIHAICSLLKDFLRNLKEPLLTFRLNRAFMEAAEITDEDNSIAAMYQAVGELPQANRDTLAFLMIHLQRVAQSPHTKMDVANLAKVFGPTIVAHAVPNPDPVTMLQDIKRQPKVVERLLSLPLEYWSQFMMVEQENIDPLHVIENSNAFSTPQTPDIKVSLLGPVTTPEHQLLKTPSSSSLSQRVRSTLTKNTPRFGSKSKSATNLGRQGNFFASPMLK

Nonstructural protein 1 = Nonstructural protein 1 (Influenza A virus, UniProt Q194T2); assay type: functional, Influenza A virus (A/California/07/2009(H1N1))
Chain of Nonstructural protein 1 (Q194T2 whole entry): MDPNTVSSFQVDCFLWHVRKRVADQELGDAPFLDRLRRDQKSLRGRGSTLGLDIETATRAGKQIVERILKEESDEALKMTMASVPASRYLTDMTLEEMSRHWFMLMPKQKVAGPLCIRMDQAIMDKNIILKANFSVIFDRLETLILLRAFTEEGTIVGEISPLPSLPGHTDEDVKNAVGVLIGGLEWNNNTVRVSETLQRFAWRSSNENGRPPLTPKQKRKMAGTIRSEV

[6] = target: Eukaryotic translation initiation factor 4E (Mus musculus, UniProt P63073); experiment: blockers of eIF4G binding by eIF4E – biochemical, TR-FRET, dose response (AID 855); assay type: functional;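 also: potency for disrupting eIF4E binding to eIF4GI seen as loss of FRET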
Chain of Eukaryotic translation initiation factor 4E (P63073 whole entry): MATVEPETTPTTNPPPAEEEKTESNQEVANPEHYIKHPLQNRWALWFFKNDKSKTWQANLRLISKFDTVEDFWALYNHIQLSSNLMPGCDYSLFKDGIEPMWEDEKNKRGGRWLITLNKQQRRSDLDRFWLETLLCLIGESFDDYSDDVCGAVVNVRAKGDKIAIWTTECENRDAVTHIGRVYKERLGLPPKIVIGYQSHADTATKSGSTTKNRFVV

[7] = target: Induced myeloid leukemia cell differentiation protein Mcl-1 (Homo sapiens, UniProt Q07820); assay type: functional
Chain of Induced myeloid leukemia cell differentiation protein Mcl-1 (Q07820 whole entry, the tested form may be a part): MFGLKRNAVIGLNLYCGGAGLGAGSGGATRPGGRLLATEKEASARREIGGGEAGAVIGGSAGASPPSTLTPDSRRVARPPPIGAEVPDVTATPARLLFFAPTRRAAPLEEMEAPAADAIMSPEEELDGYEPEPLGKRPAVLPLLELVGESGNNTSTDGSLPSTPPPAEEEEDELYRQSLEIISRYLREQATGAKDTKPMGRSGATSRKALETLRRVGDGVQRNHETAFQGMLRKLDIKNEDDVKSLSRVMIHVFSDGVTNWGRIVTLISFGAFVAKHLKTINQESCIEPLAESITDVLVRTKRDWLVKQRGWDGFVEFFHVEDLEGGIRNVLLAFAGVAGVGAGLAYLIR

[8] = HIV-1 AD8 envelope cell-cell fusion blockers – cherry-pick, dose response (AID 652062); assay type: functional, cell-based;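 also: luciferase signal from cell-cell fusion driven by HIV-1 clade B AD8 Env; potency is for inhibitors of fusion seen as a drop in luminescence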
[9] = blockers of HIV-1 ZM109 envelope-driven cell-cell fusion – HeLa effector, CEM target cells, luciferase, cherry-pick, dose response (AID 652058); assay type: functional, cell-based;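 also: luciferase signal from HIV-1 Env mediated cell-cell fusion of effector and target cells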
[10] = fluconazole-exposed Candida albicans growth modulators – fluorescence, retest, confirmation (AID 2467); assay type: functional, cell-based
[11] = NIH-3T3 fibroblast cytotoxicity, dose response, cytotoxicity control, cell-based, fluorescence, Alamar Blue, secondary assay (AID 2327); assay type: functional;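 also: NIH-3T3 mouse fibroblasts cultured with fluconazole at 8 µg/mL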
[12] = off-target signal loss in HeLa-CEM21 co-culture – HeLa F-luc CTL cells, cherry-picked, counter-screen for HIV-1 Env fusion inhibitor project, dose response (AID 652040); assay type: functional, cell-based;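 also: potency for signal decrease marking cytotoxic or nonspecific inhibition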
[13] = blockers of HIV-1 envelope-mediated cell-cell fusion – cherry-pick, dose response (AID 652057); assay type: functional, cell-based
[14] = target: T5, Microphthalmia-associated transcription factor (Homo sapiens, UniProt O75030); experiment: reducers of TRPM1 reporter luminescence, concentration series – cell-based, SK-MEL-5, cherry-picked, set 3, MITF inhibitor project, dose response (AID 493073); assay type: functional;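 also: SK-MEL-5 melanoma cells with luciferase driven by the MITF target TRPM1 promoter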
T5 sequence (O75030 whole entry): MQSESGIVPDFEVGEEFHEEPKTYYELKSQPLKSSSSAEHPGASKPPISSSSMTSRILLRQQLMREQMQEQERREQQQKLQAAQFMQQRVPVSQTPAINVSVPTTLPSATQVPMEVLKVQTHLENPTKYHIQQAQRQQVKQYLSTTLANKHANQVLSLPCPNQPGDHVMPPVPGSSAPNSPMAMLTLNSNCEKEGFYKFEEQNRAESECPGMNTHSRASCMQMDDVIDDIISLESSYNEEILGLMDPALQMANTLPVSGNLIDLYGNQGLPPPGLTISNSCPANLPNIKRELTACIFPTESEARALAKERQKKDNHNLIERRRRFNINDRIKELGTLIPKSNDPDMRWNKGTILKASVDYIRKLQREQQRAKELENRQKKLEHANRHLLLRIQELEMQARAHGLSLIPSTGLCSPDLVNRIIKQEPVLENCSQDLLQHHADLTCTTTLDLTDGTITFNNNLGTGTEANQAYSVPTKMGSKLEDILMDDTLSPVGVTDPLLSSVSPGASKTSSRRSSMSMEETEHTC

INS1 = experiment: INS-1E survival protection against cytokine death – cell-based, luminescence, retest, dose response (AID 449756); assay type: functional; settings: Rattus norvegicus;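 also: cell death triggered by IL-1 beta plus TNF-alpha plus IFN-gamma mixture; protective hits raise ATP signal compared with cytokine alone wells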
[15] = NIH3T3 cell viability loss – ATP luminescence, mouse fibroblasts, counter-screen, dose response (AID 2010); assay type: functional, cell-based;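 also: cells exposed to compound for about 90 hours before reading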
[16] = Luminescence Cell-Based Dose Retest to Confirm Inhibitors of Cancer Stem Cells. [Related pubchem assays (depositor defined):AID2717, AID2721]; assay type: functional; settings: Homo sapiens
[17] = Trypanosoma cruzi growth suppression in host cells – NIH3T3 host cells, beta-gal luminescence, confirmation (AID 2044); assay type: functional, cell-based;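 also: intracellular parasites grown in NIH/3T3 mouse fibroblasts as host cells; luminescent beta-galactosidase reporter signal from transgenic T. cruzi replicating inside host cells; inhibitors lower the luminescence signal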
Protein skinhead-1 = target: T6, Protein skinhead-1 (Caenorhabditis elegans, UniProt P34707); assay type: functional
T6 sequence (P34707 whole entry): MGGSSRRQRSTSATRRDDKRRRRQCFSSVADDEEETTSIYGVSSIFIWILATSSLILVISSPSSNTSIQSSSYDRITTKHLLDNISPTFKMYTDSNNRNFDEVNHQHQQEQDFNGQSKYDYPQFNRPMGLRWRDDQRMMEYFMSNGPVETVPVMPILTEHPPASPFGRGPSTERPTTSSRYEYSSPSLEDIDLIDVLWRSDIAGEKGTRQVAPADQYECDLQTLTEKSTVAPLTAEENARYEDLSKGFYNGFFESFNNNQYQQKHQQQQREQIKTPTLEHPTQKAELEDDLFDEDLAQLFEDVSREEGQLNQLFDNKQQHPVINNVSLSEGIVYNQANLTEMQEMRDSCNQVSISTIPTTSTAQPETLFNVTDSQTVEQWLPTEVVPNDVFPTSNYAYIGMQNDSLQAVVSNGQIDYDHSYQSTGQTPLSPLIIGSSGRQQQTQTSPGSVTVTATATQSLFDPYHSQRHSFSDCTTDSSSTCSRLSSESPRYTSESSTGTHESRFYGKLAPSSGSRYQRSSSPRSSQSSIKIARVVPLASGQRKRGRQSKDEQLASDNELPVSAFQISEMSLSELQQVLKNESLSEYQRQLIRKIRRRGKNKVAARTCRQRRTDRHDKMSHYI

Cytochrome P450 2D6 = Cytochrome P450 2D6 (Homo sapiens, UniProt P10635);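 also: CYP2D6 member of a cytochrome P450 panel assay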
Chain of Cytochrome P450 2D6 (P10635 whole entry): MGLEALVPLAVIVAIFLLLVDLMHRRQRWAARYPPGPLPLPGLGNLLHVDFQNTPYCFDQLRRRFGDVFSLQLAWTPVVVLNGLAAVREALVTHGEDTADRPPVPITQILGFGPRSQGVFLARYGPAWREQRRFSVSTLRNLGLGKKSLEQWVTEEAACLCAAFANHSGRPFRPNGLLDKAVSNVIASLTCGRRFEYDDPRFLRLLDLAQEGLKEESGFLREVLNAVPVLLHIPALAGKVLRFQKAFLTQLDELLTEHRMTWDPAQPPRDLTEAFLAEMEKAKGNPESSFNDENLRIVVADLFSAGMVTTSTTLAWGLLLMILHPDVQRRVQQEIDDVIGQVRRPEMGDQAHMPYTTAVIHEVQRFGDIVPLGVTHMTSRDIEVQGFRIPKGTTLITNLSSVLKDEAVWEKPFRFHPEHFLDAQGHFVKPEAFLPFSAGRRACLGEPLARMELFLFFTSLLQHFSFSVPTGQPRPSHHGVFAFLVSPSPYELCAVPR

## COc1ccc(CCNC(=O)c2nn(C)c3c2CS(=O)(=O)c2ccccc2-3)cc1OC
[1]
  EC50: > 300 µM (not active)
[2]
  EC50: > 300 µM (not active)

## S=c1nc(-c2ccccc2)oc2c1CCCC2
Cytochrome P450 2C9
  AC50: inconclusive

## CC(=O)N1CCN(c2ccc(NC(=S)NC(=O)COc3ccc(C(C)(C)C)cc3)cc2)CC1
[3]
  IC50: > 66 µM (inactive)
[4]
  IC50: > 66 µM (inactive)

## CCN(CC)c1ccc(/N=C/c2c(C)[nH]c3ccccc23)cc1
[5]
  IC50: 43.7 µM (active)
Nonstructural protein 1
  IC50: 29.3 µM (active)
[6]
  IC50: > 64 µM (inactive)

## CCOC(=S)SCc1cn2cccc(C)c2n1
[3]
  IC50: > 66 µM (inactive)
[4]
  IC50: > 66 µM (inactive)

## O=C(O)c1ccccc1N/N=C/c1c(Sc2nnnn2-c2ccccc2)nc2ccccn2c1=O
[1]
  EC50: 116 µM (active)
[7]
  IC50: 2.58 µM (active)
[2]
  EC50: > 300 µM (not active)

## COc1ccc(C(=S)N2CCC(C(N)=O)CC2)cc1Br
[3]
  IC50: > 66 µM (inactive)
[4]
  IC50: > 66 µM (inactive)

## CN1C(=O)C(=Cc2ccc(SC3CCCCC3)o2)C(=O)N(C)C1=O
[1]
  EC50: > 300 µM (not active)
[2]
  EC50: > 300 µM (not active)

## O=C(N/N=C/c1sc(N2CCOCC2)nc1-c1ccccc1)c1cccc(S(=O)(=O)N2CCOCC2)c1
[8]
  AC50: 3.47 µM (active)
[9]
  AC50: 4.42 µM (active)
[10]
  EC50: > 38 µM (not active)
[11]
  EC50: > 150 µM (inactive)
[12]
  AC50: 6.84 µM (active)
[13]
  AC50: 4.02 µM (active)

## Cc1ccc(C(C)C)c(OCc2n[n+](CC(=O)c3ccc(Cl)cc3)c3n2CCCCC3)c1
[14]
  AC50: 9.83 µM (active)
INS1
  AC50: 3.41 µM (active)
[15]
  EC50: > 60 µM (not active)
[16]
  AC50: 3.31 µM (active)
[17]
  EC50: 0.304 µM (active)

## O=C(N/N=C/c1ccc(F)cc1)c1c(O)nc2ccccc2c1O
[14]
  AC50: 9.64 µM (active)

## COc1cccc(C2C(C#N)=C(N)OC3=C2C(=O)CCC3)c1OC(=O)c1ccco1 (stereo not given)
[1]
  EC50: > 300 µM (not active)
[2]
  EC50: > 300 µM (not active)

## O=C(/C=C/c1ccc([N+](=O)[O-])s1)N1CCCC1
[14]
  AC50: 9.86 µM (active)
[1]
  EC50: > 300 µM (not active)
[15]
  EC50: > 60 µM (not active)
[2]
  EC50: > 300 µM (not active)
[17]
  EC50: 1.03 µM (active)

## Cc1cc2cc(CNC(=O)Nc3ccccc3)ccc2n1C
Protein skinhead-1
  IC50: > 100 µM (inactive)
[3]
  IC50: > 66 µM (inactive)
[4]
  IC50: > 66 µM (inactive)

## Cc1cc([N+](=O)[O-])ccc1-c1ccc(/C=N/NC(=O)c2ccc(Br)o2)o1
[1]
  EC50: 5.51 µM (active)
[2]
  EC50: 19.7 µM (active)
[16]
  AC50: 2.35 µM (active)

## CN=C(S)SCCOc1ccccc1
[3]
  IC50: > 66 µM (inactive)
[4]
  IC50: > 66 µM (inactive)

## CCCCCCN1C=CC(=C2C(=O)c3ccccc3C2=O)C=C1
[14]
  AC50: 3.86 µM (active)

## O=C(OCC#CCSc1nnc(-c2cccc3ccccc23)o1)c1ccco1
Cytochrome P450 2C9
  AC50: inconclusive

## Cc1cccc(NC(=O)CCCN2C(=O)c3cccc4cccc(c34)C2=O)c1
Cytochrome P450 2D6
  AC50: 25.1 µM (inconclusive)
Cytochrome P450 2C9
  AC50: inconclusive

## COc1ccc2c(c1)OC[C@H]1[C@H]2N2C(=O)CN(Cc3ccc(C)cc3)C(=O)[C@@]2(C)[C@H]1c1ccccc1
[8]
  AC50: 5.83 µM (active)
[9]
  AC50: 15.5 µM (active)
[12]
  AC50: 26.9 µM (active)
[13]
  AC50: 7.77 µM (active)

## CN(C)C(=O)CCC(=O)N1CCCC(C(=O)c2ccc3c4c(cccc24)CC3)C1 (stereo not given)
[8]
  AC50: 2.71 µM (active)
[9]
  AC50: 0.53 µM (active)
[12]
  AC50: 0.753 µM (active)
[13]
  AC50: 0.498 µM (active)

## Cc1noc(C)c1-c1nccc(-n2ccnc2)n1
Cytochrome P450 2D6
  AC50: 20 µM (inconclusive)
Cytochrome P450 2C9
  AC50: inconclusive

## Nc1ccc(N(c2ccccc2)c2ccc(N)cc2)cc1
[15]
  EC50: > 60 µM (not active)
[5]
  IC50: 8.57 µM (active)
Nonstructural protein 1
  IC50: 9.26 µM (active)
[6]
  IC50: > 64 µM (inactive)
[17]
  EC50: 1.81 µM (active)

## CC1CCCCN1C(=O)Cn1nnc(-c2cccnc2)n1 (stereo not given)
[3]
  IC50: 17 µM (active)
[4]
  IC50: > 66 µM (inactive)
